Assay results taken from US20100069854A1, “Elastomeric Devices Containing Chlorhexidine/Fatty Acid Salts Made From Fatty Acids of 12 to 18 Carbons” (priority 2008, published 2010).

Columns and labels:
[1] = test system: Pseudomonas aeruginosa ATCC 27853; assay: Basic broth adherence assay on coated polyurethane tubes; format: cell-based
[2] = test system: Candida albicans ATCC 10231; assay: Zone of inhibition assay with impregnated polyurethane foam discs; format: cell-based
[3] = 90% THF+10% Methanol
Description: Chlorhexidine diacetate, Chlorhexidine dodecanoate and chlorhexidine palmitate were loaded into silicone tubing by first dissolving the chlorhexidine salt in a 90% THF+10% Methanol solution. The tubing was then immersed in this solution for one day where it swelled and chlorhexidine salt diffused into the polymer matrix. The impregnated piece of tubing was removed and then vacuum dried to remove all volatile solvent.

N=C(NCCCCCCNC(=N)NC(=N)Nc1ccc(Cl)cc1)NC(=N)Nc1ccc(Cl)cc1.Nc1ccc(P(=O)(O)O)cc1.Nc1ccc(P(=O)(O)O)cc1 [Chlorhexidine Palmitate, chlorhexidine dipalmitate]
Log10 reduction of adhered Pseudomonas aeruginosa onto the surface of coated polyurethane tubes ([1]; 7 days): 7 | Log10 reduction of adhered Pseudomonas aeruginosa onto the surface of coated polyurethane tubes ([1]; 14 days): 7 | Log10 reduction of adhered Pseudomonas aeruginosa onto the surface of coated polyurethane tubes ([1]; 21 days): 7 | ZOI produced by impregnated polyurethane foam punches against Candida albicans ([2]; Day 1, daily transfer to fresh agar): 14 mm | ZOI produced by impregnated polyurethane foam punches against Candida albicans ([2]; Day 2, daily transfer to fresh agar): 21 mm | ZOI produced by impregnated polyurethane foam punches against Candida albicans ([2]; Day 3, daily transfer to fresh agar): 19 mm | ZOI produced by impregnated polyurethane foam punches against Candida albicans ([2]; Day 4, daily transfer to fresh agar): 14 mm | ZOI produced by impregnated polyurethane foam punches against Candida albicans ([2]; Day 7, daily transfer to fresh agar): 11 mm | ZOI produced by impregnated polyurethane foam punches against Candida albicans ([2]; Day 8, daily transfer to fresh agar): 14 mm | ZOI produced by impregnated polyurethane foam punches against Candida albicans ([2]; Day 9, daily transfer to fresh agar): 15 mm | Solubility in the swelling impregnation solvent mixture (in words) [3]: soluble at higher concentrations
